Test results taken from patent publication US6265402A, “Use of 2-phenylmorpholin-5-one derivatives” (Nikken Chemicals Co., Ltd., priority 1996, dated 2001).

Legend:
Type IV PDE = Type IV PDE inhibitory activity; assay type: biochemical; conditions: Type IV PDE partially purified from rat neutrophils; 3H-cAMP substrate, 30° C., 30 minutes
Procedure: Type I, III, IV, and V PDE isozymes were prepared to study the PDE inhibitory activities of and selectivities with the compound of the invention [Trends Pharmacol Sci., 12, 19-27 (1992)]. Type I PDE was purchased from Sigma Corp. Type III, IV, and V PDE isozymes were partially purified from platelets (Type III and V) or neutrophils (Type IV) collected from rats. Each enzyme source was homogenized in a buffer (pH 6.5) containing 20 mM bisTris, 2 mM EDTA (i.e., ethylenediamine tetraacetate), 0.1 mM PMSF (i.e., phenylmethylsulfonyl fluoride), 5 mM 2-mercaptoethanol, 0.001 mM pepstatin and 0.01 mM leupeptin and was centrifuged at 30000×G for 30 minutes to obtain a supernatant, which was applied to an ion exchange column (Q-sepharose First Flow, Pharmacia Corp.) and was eluted with 0 to 1M sodium acetate. Partially purified isozymes were identified by observing the effects by conventional inhibitors.
Each PDE isozyme and the test compound dissolved in DMSO (i.e., dimethyl sulfoxide) were added to 50 mM Tris-HCl buffer containing 5 mM magnesium chloride. ^3 H-cAMP (for type III and IV PDE) or ^3 H-cGMP (for type I and V PDE) were added as substrates and were reacted at 30° C. for 30 minutes. The reaction was terminated by placing the test tube in boiling water of 100° C. for 5 minutes. The nucleotides formed by PDE were broken down by 5'-nucleotidase to ^3 H-adenosine or 3H-guanosine. The unreacted substrate and reaction product were separated through an ion-exchange column (i.e., QAE sephadex, Pharmacia Corp.) The eluted ^3 H-nucleoside was measured for its radioactivity by a liquid scintillation counter. The inhibitory activities of the compound of the present invention are shown by the IC50 value (M). Further, the inhibitory activities of the test samples against Type I, III, and V are 1/10 or less than that against type IV.

rat neutrophils = assay: Inhibitory action of super oxide anion release from rat neutrophils; assay type: cell-based; conditions: Neutrophil, stimulation with 0.3 μM calcium ionophore A23187, chemiluminescence, Lusigenin
Procedure: Inhibitory effects on activity of rat neutrophils
The release of super oxide anions was measured so as to study the inhibitory effects of the compound of the present invention on inflammatory leukocytes, that is, neutrophils.
Blood sample was collected from Wister rats anesthetized with ether. It was superposed on a blood cell separation solution (Polymorphoprep 1.113, made by Naicomed Farm), and the neutrophils were separated by centrifugation. The neutrophils were resuspended in a Hank's balanced salt solution at a concentration of 0.5×10^4 cells/ml 0.1 mM of Lusigenin and the test substance dissolved in DMSO were added to 2 ml of the cell-suspension. The chemiluminescence generated by stimulation of 0.3 μM calcium ionophore A23187 was measured by a chemiluminescence reader so as to evaluate the release of super oxide anions.

[1] = tested on: antigen-induced bronchospasms; assay: Inhibitory effect on Antigen-Induced Bronchospasm (Anti-Asthmatic action); assay type: in vivo; conditions: Cavia porcellus; Hartley male guinea pig sensitized with Ovalbumin; intravenous, 10 minutes before 0.2 mg/kg OA i.v.; Konzett-Roessler method; read-out: Action for suppressing antigen-induced bronchospasms ED50
Procedure: Inhibitory effect on Antigen-Induced Bronchospasm (Anti-Asthmatic action)
A Hartley male guinea pig was sensitized by intramuscular administration of 35 mg Ovalbumin (OA) on first day and fourth day. A tracheal canula was introduced in the guinea pig anesthetized with pentobarbital and artificial ventilation was performed 25 to 29 days after the first sensitization. The overflow of the ventilation was measured by the Konzett-Roessler method while 0.2 mg/kg OA were administered intravenously. The test compound was dissolved in polyethylene glycol 400 and intravenously administered 10 minutes before administration of the antigens.

SMILES | IC50 (Type IV PDE) | IC50 (rat neutrophils) | ED50 [1]
COc1ccc(C2CNC(=O)CO2)cc1OC1CCCC1 (stereo not shown) [Compound No. 2, 2-(3-cyclopentyloxy-4-methoxyphenyl)morpholin-5-one] | 1.5 µM | 5.8 µM | 0.48 mg/kg
CCCCOc1cc(C2CNC(=O)CO2)ccc1OC (stereo not shown) [Compound No. 5, 2-(3-butoxy-4-methoxyphenyl)morpholin-5-one] | 12 µM |  | 3.6 mg/kg
COc1ccc(C2CN(C)C(=O)CO2)cc1OC1CCCC1 (stereo not shown) [Compound No. 14, 2-(3-cyclopentyloxy-4-methoxyphenyl)-4-methylmorpholin-5-one] | 0.31 µM |  | 2.1 mg/kg
COc1ccc(C2(C)CNC(=O)CO2)cc1OC1Cc2ccccc2C1 (stereo not shown) [Compound No. 27, 2-[3-(2-indanyloxy)-4-methoxyphenyl]-2-methylmorpholin-5-one] | 0.13 µM |  | 7.99 mg/kg
COc1ccc(C2CNC(=O)CO2)cc1OCC1(C)CC1 (stereo not shown) [Compound No. 35, 2-[3-[(1-methylcyclopropyl)methoxy]-4-methoxyphenyl]morpholin-5-one] | 1.3 µM |  | 6.22 mg/kg
COc1ccc(C2CNC(=O)CO2)cc1OCCC1Cc2ccccc2C1 (stereo not shown) [Compound No. 50, 2-[3-[2-(2-indanyl)ethoxy]-4-methoxyphenyl]morpholin-5-one] | 3.8 µM |  | 
COc1ccc(C2CN(C)C(=O)CO2)cc1OCC1CC1 (stereo not shown) [Compound No. 52, 2-(3-cyclopropylmethoxy-4-methoxyphenyl)-4-methylmorpholin-5-one] | 2.8 µM |  | 

Continued by falling IC50 (Type IV PDE), values first:

IC50 (Type IV PDE) | IC50 (rat neutrophils) | SMILES | ED50 [1]
37 µM | 29 µM | COc1ccc(C2CNC(=O)CO2)cc1OC (stereo not shown) [Compound No. 1, 2-(3,4-dimethoxyphenyl)morpholin-5-one] | 
16 µM | 1.6 µM | COc1ccc(C2(C)CNC(=O)CO2)cc1OC (stereo not shown) [Compound No. 9, 2-(3,4-dimethoxyphenyl)-2-methylmorpholin-5-one] | 
7.8 µM |  | COc1ccc(C2CNC(=O)CO2)cc1OCC(C)C (stereo not shown) [Compound No. 39, 2-[3-(2-methylpropoxy)-4-methoxyphenyl]morpholin-5-one] | 8.04 mg/kg
6.9 µM |  | COc1ccc(C2CNC(=O)CO2)cc1OCC1CCCC1 (stereo not shown) [Compound No. 36, 2-(3-cyclopentylmethoxy-4-methoxyphenyl)morpholin-5-one] | 1 mg/kg
4.6 µM |  | COc1ccc(C2CNC(=O)CO2)cc1OCC1CCC1 (stereo not shown) [Compound No. 38, 2-(3-cyclobutylmethoxy-4-methoxyphenyl)morpholin-5-one] | 7.83 mg/kg
2.5 µM |  | COc1ccc(C2CNC(=O)CO2)cc1OCC1CC1 (stereo not shown) [Compound No. 8, 2-(3-cyclopropylmethoxy-4-methoxyphenyl)morpholin-5-one] | 4.31 mg/kg
1.8 µM | 1.4 µM | COc1ccc(C2CN(Cc3ccc(Br)cc3)C(=O)CO2)cc1OC1CCCC1 (stereo not shown) [Compound No. 13, 4-(4-bromobenzyl)-2-(3-cyclopentyloxy-4-methoxyphenyl)morpholin-5-one] | 
0.1 µM |  | COc1ccc(C2CN(C)C(=O)CO2)cc1OCCC1Cc2ccccc2C1 (stereo not shown) [Compound No. 51, 2-[3-[2-(2-indanyl)ethoxy]-4-methoxvphenyl]-4-methylmorpholin-5-one] | 
